Consider two substances from paper PMC8757871, “Bridging the Antimicrobial Activity of Two Lactoferricin Derivatives in E. coli and Lipid-Only Membranes” (Frontiers in Medical Technology, 2021).

The subject of assay [1] is E. coli K12 5K. The format is cell-based, Escherichia coli. Conditions: MIC = IC99.9, 2 h incubation with AMP in PBS at 37°C, then growth in LB about 20 h. On the procedure: Colonies of E. coli K12 5K (courtesy of Günther Koraimann, University of Graz) were grown in LB-agar plates at 37°C. Overnight cultures (ONCs) were prepared by inoculating a single colony in 3 ml LB-medium in sterile polypropylene conical tubes (15 ml), enabling bacterial growth under aerobic conditions for 12−16 h in a shaking incubator at 37°C. Main cultures were prepared by suspending an aliquot of the ONCs in 10 ml LB-medium in sterile polypropylene conical tubes (50 ml) and harvested in the middle of the exponential growth phase. Bacteria were then immediately washed twice and re-suspended in nutrient-free and isotonic phosphate-buffered saline (PBS) solution (phosphate buffer 20 mM, NaCl 130 mM) at pH 7.4. Bacterial concentration was measured via turbidity measurements. The optical density at λ = 600 nm (OD600) was acquired with the spectrophotometer Thermo Spectronic Genesys 20 (Thermo Fisher Scientific, Waltham, MA), where OD600 = 1 corresponds approximately to 8 ×10^8 CFU/ml (where CFU is colony forming units).
The antimicrobial activity of the AMPs on E. coli was tested using a modified susceptibility microdilution assay ([30]) in the bacterial concentration range of 5 × 10^5 to 10^9 CFU/ml. Bacterial suspensions were incubated at a given AMP concentration for 2 h at 37°C (control samples were incubated in buffer only). Then, cell growth was monitored upon addition of double concentrated LB-medium for about 20 h using a Bioscreen C MBR (Oy Growth Curves Ab, Helsinki, Finland).
This allowed us to quantify the number density of surviving bacteria from the onset of the exponential growth via the relation Δtexp = a + blog(ncell), where a and b were obtained from a calibration curve in absence of AMPs (Supplementary Figure 1B). Then, the inhibited bacterial fraction IF=1-ncell([P])/ncell0 was calculated for different values of peptide concentration, [P], and of bacterial number density of the control sample, ncell0 . Following the so-called “equi-activity” analysis ([27], [31]), we further interpolated IF using a Gompertz function, which enabled us to derive inhibitory peptide concentrations ICx, where x is the corresponding inhibited bacterial fraction (Supplementary Figure 1C). By convention, the standard MIC is defined at inhibition levels of 99.9%, i.e., IC99.9 ≡ MIC. Additional control experiments were performed in order to test whether DMSO and acetic acid, used in buffer solutions of both peptides (see above), affect bacterial growth. In particular, the microdilution assays were repeated with LF11-215 dissolved in pure PBS, yielding equivalently delayed onsets of bacterial growth.

For assay [2], the system named is E. coli K12 5K. Put plainly: ζ-potential estimate of the maximum number of surface-adsorbed AMPs. The format is cell-based, Escherichia coli. Conditions: for fraction of cell associated peptides that do not enter inner compartments: at bacteria inhibition levels of 10%; for NPmax/NB, ratio of surface-adsorbed to cell-partitioned AMPs (upper boundary): at the MIC. The method, then:
DLS and ζ-potential measurements were carried out with a Zetasizer Nano ZSP (Malvern Panalytical, Malvern, UK). E. coli suspensions were incubated with a given AMP concentration at 37°C for 1 h prior to each measurement. […] Control samples (no AMPs) were suspended and incubated in buffer alone. […] Because of the high conductivity of PBS, the electrode voltage was set to 4 V for ζ-potential measurements to keep currents below 1 mA. Further, measurements were paused for 180 s between individual runs. This prevented Joule heating leading to sample denaturation and electrode blackening. Experiments were repeated three times on different preparations, each consisting of at least six measurements. Reported ζ-potential values are given by the median of the corresponding measurements (i.e., from at least 18 values) and errors were derived using the median absolute deviations.
Remembering that ζ-potential values are sensitive only to the charges exposed to the outside of any particle, including bacteria, we can obtain upper boundaries for the number of surface adsorbed peptides. Given the high abundance of lipopolysaccharides (LPS) in the outer leaflet (about 70–90 vol%) of Gram-negative bacteria, as compared to other charged lipid species such as PG and CL (<2 vol%) and membrane proteins (7–20 vol%) ([40]), it is justified to assume that LPS dominates the surface potential of E. coli. Then, following considerations put forth for peptides partitioning in liposomes ([31], [41]), the ratio of ζ-potential values in the presence and absence of AMPs is […]
(9) ζ/ζ0≈σ/σ0≃(S0/S)∑iNizi+NPzP/NLPS0zLPS, where (σ, σ0) and (S, S0) are the corresponding surface charge densities and cell surface areas, respectively. Further, NLPS0 is the initial number of LPS molecules in the outer leaflet, with a nominal charge zLPS ≃ −6 ([42]); NP is the number of surface adsorbed AMPs of nominal charge zP ≃ +5 ([20]); and ∑iNizi=NLPSzLPS+NPGzPG+NCLzCL considers anionic lipids that translocate into the outer leaflet due to AMP activity ([3], [6], [18]). This term also accounts for a possible loss of LPS molecules in the outer leaflet due to vesiculation processes ([25]). Note that Equation (9) is only valid for |ζ| ≤ 25 mV, in which range ζ ∝ σ ([43]). […] Rearranging Equation (9) leads to […]
(13) NPmax/NLPS0≈(zLPS/zP)(ζ/ζ0-1), where NPmax is the upper boundary of surface adsorbed peptides. […] For example, using DLS, we measured a hydrodynamic diameter of E. coli K12 2RH = 980 ± 30 nm, from which we calculate S0≃4.5×10^6 nm^2, approximating the bacteria's shape with a cylinder of radius r and length l using RH2≃r^2/2+l^2/12 and r ~ 400 nm ([47]). […]

Read-outs that look alike come from different tables or passages of the source.

On to “H-FWRIRIRR-NH2 [LF11-215, H-FWRIRIRR-NH2]”, for which the results for the minimal inhibitory concentration (MIC) against E. coli K12 5K [1] (ncell = 10^6 CFU/ml) and against E. coli K12 5K [1] (ncell = 10^9 CFU/ml) were 13.7 ± 0.4 µM and 158 ± 2 µM, respectively. Moreover, the “fraction of cell associated peptides that do not enter inner compartments” value in the assay with E. coli K12 5K [2] was ~ 5%. For the same substance, in the assay on E. coli K12 5K [2], the “NPmax/NB, ratio of surface-adsorbed to cell-partitioned AMPs (upper boundary)” value is “about 1%”.

Turning to “H-PFFWRIRIRR-NH2 [LF11-324, H-PFFWRIRIRR-NH2]”, the minimum inhibitory concentration (MIC) – broadly, the lowest concentration found to suppress growth – with E. coli K12 5K [1] (ncell = 10^6 CFU/ml) is 11.1 ± 0.6 µM. The substance further came in with an MIC against E. coli K12 5K [1] (ncell = 10^9 CFU/ml) of 57 ± 2 µM. In addition, in the assay on E. coli K12 5K [2], the “fraction of cell associated peptides that do not enter inner compartments” value is recorded as ~ 18% and the “NPmax/NB, ratio of surface-adsorbed to cell-partitioned AMPs (upper boundary)” value was ~5%.
